{"source": "patent US20240408004A1", "about": "“COMPOSITIONS, DEVICES, AND METHODS FOR THE TREATMENT OF OVERDOSE AND REWARD-BASED DISORDERS” (priority 2018, published 2024)", "key": {"rabbit eye": {"tested_on": "rabbit eye", "settings": "concentrations of 25%; cited from earlier work"}, "[1]": {"assay": "Safety assessments of Example 4 study (adverse events, nasal irritation, vital signs, ECG)", "assay_type": "in vivo, human", "experimental": "Sudy Goals. […] Secondary endpoints included adverse events (AEs), vital signs (heart rate, sitting blood pressure, and respiration rate), electrocardiogram (ECG), clinical laboratory changes and nasal irritation using the nasal irritation scale.\nOn dosing days, the order of assessments were ECG, vital signs, then PK blood collection when scheduled at the same nominal times. The target time of the PK blood collection was considered the most critical and if the collection was more than ±1 minute from the scheduled time for the first 60 minutes of collections or more than ±5 minutes for the scheduled time points thereafter, this was considered a protocol deviation. ECG and vital signs were collected within the 10 minute period before the nominal time of blood collections. At screening, admission, and discharge, ECG, and vital signs were checked once per day. […] Clinical laboratory measurements were repeated after the last PK blood draw prior to clinic discharge. AEs were assessed by spontaneous reports by subjects, by examination of the nasal mucosa, by measuring vital signs, ECG, and clinical laboratory parameters.\nSafety Assessments. […] ECG and vital signs was performed within the 10 minute period before the nominal time for post-dose blood collections. AEs were recorded from the start of study drug administration until clinic discharge."}, "[2]": {"assay": "Intranasal naltrexone formulation experiments (solubility, crystallization, discoloration, osmolality)", "assay_type": "physicochemical", "experimental": "A series of experiments were performed to identify formulations of naltrexone which would make pharmaceutically appropriate intranasal products as disclosed herein.\nA range of formulations were tested with the following observations. […] Several preparations were made at 30 mg/mL thereafter, which additionally contained fixed amounts of (dodecyl maltoside 0.25%) and NaCl (about 0.74%), and varying amounts of preservative (benzalkonium chloride, 0-0.02%) and stabilizing agent (EDTA, 0-0.3%). Crystallization behavior and discoloration were visually monitored. All of these formulations developed crystals when stored under refrigerated conditions. […] The 0.3% EDTA formulation appeared to resist yellowing for the longest period of time. Thereafter, a range of co-solvents were assessed for their potential to reduce crystallization of drug out of solution. Polyethylene glycol (PEG), propylene glycol, and benzyl alcohol were tested."}, "[3]": {"settings": "cited from earlier work"}, "[4]": {"settings": "intranasal formulation with […] dodecyl maltoside"}}, "data": [{"smiles": "CCCCCCCCCCCCO[C@@H]1O[C@H](CO)[C@@H](O[C@H]2O[C@H](CO)[C@@H](O)[C@H](O)[C@H]2O)[C@H](O)[C@H]1O", "note": "[Intravail®, 1-O-n-dodecyl-β-D-maltopyranoside]", "values": [{"measurement": "irritation in the rabbit eye model", "setting": "rabbit eye", "value": "non-irritating"}]}, {"smiles": "O=C1CC[C@@]2(O)[C@H]3Cc4ccc(O)c5c4[C@@]2(CCN3CC2CC2)[C@H]1O5", "note": "[naltrexone, 17-(cyclopropylmethyl)-4,5α-epoxy-3,14-dihydroxymorphinan-6-one]", "values": [{"measurement": "subjects with dizziness", "setting": "[1]; 5 subjects, regardless of severity or attribution", "value": 36, "unit": "%"}, {"measurement": "subjects with AEs of the Nervous System Disorders SOC", "setting": "[1]; 7 subjects", "value": 50, "unit": "%"}, {"measurement": "subjects who experienced at least one AE", "setting": "[1]; 10 of 14 subjects, any dosing period, any relationship to drug", "value": 71, "unit": "%"}, {"measurement": "discontinuation from the study due to AEs", "setting": "[1]; hypertension, syncope, out-of-range pre-dose vital signs", "value": "Three subjects were discontinued"}, {"measurement": "severe AEs", "setting": "[1]; in vivo", "value": "No severe AEs were observed"}, {"measurement": "appearance of 50 mg/mL preparation", "setting": "[2]; room temperature, indicating incomplete dissolution", "value": "cloudy"}, {"measurement": "solubility", "setting": "[2]; thermodynamic from solid, ambient temperature, read-out: solubility limit in solution", "value": "~40", "unit": "mg/mL"}]}, {"smiles": "CNS(=O)(=O)Cc1ccc2[nH]cc(CCN(C)C)c2c1", "note": "[sumatriptan]", "values": [{"measurement": "increase of total exposure (AUC)", "setting": "[3]; intranasal formulation with […] dodecyl maltoside vs Imitrex nasal spray", "value": 32, "unit": "%"}, {"measurement": "Tmax", "setting": "[3]; [4]", "value": "8 to 10", "unit": "min"}, {"measurement": "increase of maximum plasma concentration in comparison to Imitrex nasal spray", "setting": "[3]; [4]", "value": "almost four-fold"}]}]}
